Measurements taken from PubChem BioAssay AID602206 (Sanford-Burnham Center for Chemical Genomics, 2012).
The source made the active and inactive calls. No rule for the calls is given here.

Target: Bcl-2-related protein A1 (Mus musculus) (UniProt Q07440)
Assay: Bfl-1 binding inhibition by analogs, SAR follow-up, counter-screen for UBC13 polyubiquitination inhibitor project, biochemical, mouse Bfl-1, set 3 (AID 602206)
Details: Bfl-1 / peptide binding counterscreen, TR-FRET

Chain of Bcl-2-related protein A1 (Mus musculus) (Q07440 whole entry, looked up): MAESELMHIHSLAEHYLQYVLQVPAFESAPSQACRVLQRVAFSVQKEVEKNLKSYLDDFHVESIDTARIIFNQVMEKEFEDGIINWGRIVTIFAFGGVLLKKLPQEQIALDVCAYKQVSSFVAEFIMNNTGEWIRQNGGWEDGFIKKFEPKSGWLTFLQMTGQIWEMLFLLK

| Compound | IC50 |
| --- | --- |
| c1nc(N2CCC(N3CCCCC3)CC2)c2nc3n(c2n1)CCCC3 | > 100 µM (inactive) |
| c1ccc(CN2CCN(c3ncnc4c3nc3n4CCCC3)CC2)cc1 | > 100 µM (inactive) |
| COc1cc(Cl)c(C)cc1NC(=O)C1CCN(c2ncnc3c2nc2n3CCCCC2)CC1 | > 100 µM (inactive) |
| COc1ccc(NC(=O)C2CCN(c3ncnc4c3nc3n4CCCCC3)CC2)cc1Cl | > 100 µM (inactive) |
| O=C(Nc1ccc(CN2CCCCC2)cc1)C1CCN(c2ncnc3c2nc2n3CCCCC2)CC1 | > 100 µM (inactive) |
| Cc1ccc(NC(=O)C2CCN(c3ncnc4c3nc3n4CCCCC3)CC2)cc1C | > 100 µM (inactive) |
| Cc1ccc(Cl)cc1N1CCN(c2ncnc3c2nc2n3CCCC2)CC1 | > 100 µM (inactive) |
| Cc1cc(Cl)ccc1NC(=O)C1CCN(c2ncnc3c2nc2n3CCCCC2)CC1 | > 100 µM (inactive) |
| CCOc1ccc(CCNC(=O)CCCCCN2C(=O)c3ccccc3C2=O)cc1OCC | > 100 µM (inactive) |
| COc1ccc(Cl)cc1NC(=O)C1CCN(c2ncnc3c2nc2n3CCCCC2)CC1 | > 100 µM (inactive) |
| CC1CN(S(=O)(=O)c2ccc(NC(=O)CCCCCN3C(=O)c4ccccc4C3=O)cc2)CC(C)O1 (centres undefined) | > 100 µM (inactive) |
| Cc1c(Cl)cccc1NC(=O)C1CCN(c2ncnc3c2nc2n3CCCCC2)CC1 | > 100 µM (inactive) |
| O=C(Nc1cc(F)ccc1F)C1CCN(c2ncnc3c2nc2n3CCCCC2)CC1 | > 100 µM (inactive) |
| O=C(CCCCCN1C(=O)c2ccccc2C1=O)NCCc1ccccc1 | > 100 µM (inactive) |
| O=C(Nc1cccc(Cl)c1)C1CCN(c2ncnc3c2nc2n3CCCCC2)CC1 | > 100 µM (inactive) |
| Cc1ccc(NC(=O)C2CCN(c3ncnc4c3nc3n4CCCCC3)CC2)c(Cl)c1 | > 100 µM (inactive) |
| Fc1ccccc1N1CCN(c2ncnc3c2nc2n3CCCC2)CC1 | > 100 µM (inactive) |
| Cc1ccc(NC(=O)C2CCN(c3ncnc4c3nc3n4CCCCC3)CC2)cc1F | > 100 µM (inactive) |
| COc1cc(OC)c(NC(=O)C2CCN(c3ncnc4c3nc3n4CCCCC3)CC2)cc1Cl | > 100 µM (inactive) |
